Results as given in patent publication US11214803B2, “Modulators of YAP1 expression” (Ionis Pharmaceuticals, Inc., priority 2019, dated 2022).
Strand notation (5' to 3'): a small letter for the sugar, then the base; units joined by * are phosphorothioate-linked, units joined directly phosphodiester-linked; [ ] holds rarer units or linkages, { } end groups; capitals alone tell only the bases. e = 2'-O-(2-methoxyethyl) (MOE); k = constrained ethyl (cEt); [5mC] = 5-methylcytosine; d = 2'-deoxy (DNA); m = 2'-O-methyl

Test system: Yap1 mRNA
Experiment: Antisense inhibition of human Yap1 in SNU-449 cells by modified oligonucleotides, single dose (Example 5, RTS36584)
Assay type: cell-based
Method in brief: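 SNU-449 cells were given 2,000 nM oligonucleotide by free uptake for about 48 h. Yap1 mRNA was then measured by RT-qPCR with primer probe set RTS36584, normalized to total RNA by RIBOGREEN and expressed as percent of untreated control.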

[1] = Table 51, Yap1 mRNA remaining as percent of untreated control (UT), SNU-449 cells, single dose
[2] = Table 45, Yap1 mRNA as percent of untreated control, SNU-449 cells, single dose
[3] = Table 41, SNU-449 cells, 10,000 cells per well, free uptake, 2,000 nM modified oligonucleotide, approximately 48 hours, RTS36584, normalized to RIBOGREEN, Yap1 mRNA relative to untreated control cells
[4] = Table 50, Yap1 mRNA remaining as percent of untreated control (UT), SNU-449 cells, single dose
[5] = Table 49, Yap1 mRNA level relative to untreated control, modified oligonucleotides targeting SEQ ID NO.: 1 and 2
[6] = Table 40 (separate experiment), SNU-449 cells, 10,000 cells per well, free uptake, 2,000 nM oligonucleotide, approx. 48 hours, RTS36584, normalized to RIBOGREEN, Yap1 mRNA relative to untreated control
[7] = Table 48, Yap1 mRNA level relative to untreated control, modified oligonucleotides targeting SEQ ID NO.: 1 and 2
[8] = Table 43 experiment, SNU-449 cells, 10,000 cells per well, free uptake, 2,000 nM, approximately 48 hours, RTS36584, Yap1 mRNA normalized to RIBOGREEN, relative to untreated control cells
[9] = Table 42 (separate experiment), SNU-449 cells, 10,000 cells per well, free uptake, 2,000 nM modified oligonucleotide, approximately 48 hours, RTS36584, normalized to RIBOGREEN, Yap1 mRNA relative to untreated control cells
[10] = Table 52, Yap1 mRNA, modified oligonucleotides targeting SEQ ID NO: 1 and 2
[11] = Table 44 experiment, SNU-449 cells, 10,000 cells per well, free uptake, 2,000 nM, approximately 48 hours, RTS36584, Yap1 mRNA normalized to RIBOGREEN, relative to untreated control cells
[12] = Table 46, Yap1 mRNA as percent of untreated control, SNU-449 cells, single dose

For “1197237 (antisense kT*kA*kT*dA*mA*d[5mC]*dT*dG*dG*dG*d[5mC]*dA*dA*kA*kT*kT) [Compound 1197237]”, the “YAP1 (% UT)” value [1] was 74 % UT.

“1198936 (kA*kG*dA*dT*dT*dT*dA*dG*dG*dA*dT*kG*d[5mC]*kA*dT*kG; antisense) [Compound 1198936]” was tested, and the “YAP1 (% UTC)” value [2] was 38 % UTC.

With “1197269 (kT*kA*kA*dA*mG*dT*dG*dT*dA*dT*dG*dT*d[5mC]*kA*kG*kA) [Compound 1197269]” the “YAP1 (% UT)” value [1] was 3 % UT.

For “1198657 (kA*kG*d[5mC]*dA*d[5mC]*dT*dT*dT*dT*dA*d[5mC]*dA*kT*eT*kA*eG; antisense) [Compound 1198657]”, the “YAP1 (% UTC)” value [3] was 95 % UTC.

For “1198938 (kT*k[5mC]*dA*dG*dA*dT*dT*dT*dA*dG*dG*kA*dT*kG*d[5mC]*kA; antisense) [Compound 1198938]”, the “YAP1 (% UTC)” value [2] was 59 % UTC.

“1197290 (kG*kA*kG*dG*mU*dA*dT*dA*dA*d[5mC]*dT*dG*dG*kG*k[5mC]*kA) [Compound 1197290]” was tested, and the “YAP1 (% UT)” value [1] was 37 % UT.

“1198602 (antisense kA*kT*kA*dT*dT*dG*d[5mC]*dA*dA*dT*d[5mC]*dT*kG*kT*k[5mC]*eT) [Compound 1198602]” was tested, and the “YAP1 (% UT)” value [4] was 29 % UT.

For “1198367 (kG*kA*k[5mC]*dT*dA*dA*dG*dT*dA*dA*dG*dG*kT*eT*kT*e[5mC]; antisense) [Compound 1198367]”, the “YAP1 (% UT)” value [5] was 58 % UT.

For “1198439 (kA*dG*dT*dG*dT*dA*dT*dG*dT*d[5mC]*dA*kG*eA*kA*eG*kA; antisense) [Compound 1198439]”, the “YAP1 (% UTC)” value [6] was 6 % UTC.

With “1198756 (kG*eT*kG*d[5mC]*dT*dT*dT*dG*dG*dA*dA*dG*eA*eT*k[5mC]*kT; antisense) [Compound 1198756]” the “YAP1 (% UTC)” value [6] was 50 % UTC.

With “1197214 (antisense kA*kG*kT*dG*dT*dA*dT*dG*dT*d[5mC]*dA*dG*dA*kA*kG*kA) [Compound 1197214]” the “YAP1 (% UT)” value [7] was 5 % UT.

“1097247 (antisense kT*kA*kA*dA*dG*dT*dG*dT*dA*dT*dG*dT*d[5mC]*kA*kG*kA) [Compound 1097247]” was tested, and the “YAP1 (% UT)” value [7] was 9 % UT.

“1198318 (kT*kT*kT*dG*dG*dA*dA*dG*dA*dT*d[5mC]*dT*kG*eA*kA*eA; antisense) [Compound 1198318]” was tested, and the “YAP1 (% UT)” value [7] was 120 % UT.

With “1198485 (antisense kA*kG*d[5mC]*dA*d[5mC]*dT*dT*dT*dT*dA*d[5mC]*eA*kT*eT*kA*eG) [Compound 1198485]” the “YAP1 (% UTC)” value [8] was 64 % UTC.

With “1198647 (kG*kG*dT*dA*dT*dA*dA*d[5mC]*dT*dG*dG*dG*k[5mC]*eA*kA*eA) [Compound 1198647]” the “YAP1 (% UTC)” value [9] was 47 % UTC.

In the case of “1198357 (kT*kT*kA*dA*dA*dG*dT*dG*dT*dA*dT*dG*kT*e[5mC]*kA*eG; antisense) [Compound 1198357]”, the “YAP1 (% UT)” value [5] is reported as 21 % UT.

“1198920 (kA*kA*dG*d[5mC]*dA*d[5mC]*dT*dT*dT*dT*dA*k[5mC]*dA*kT*dT*kA; antisense) [Compound 1198920]” was tested, and the “YAP1 (% UTC)” value [2] was 54 % UTC.

In the case of “1200804 (kA*kG*kG*dT*dA*mU*dA*dA*d[5mC]*dT*dG*dG*dG*k[5mC]*kA*kA; antisense) [Compound 1200804]”, the “YAP1 (% UT)” value [10] is reported as 44 % UT.

“1198229 (kT*kT*dA*dA*dG*d[5mC]*dA*d[5mC]*dT*dT*dT*eT*eA*e[5mC]*kA*kT) [Compound 1198229]” was tested, and the “YAP1 (% UTC)” value [9] was 80 % UTC.

With “1198312 (kG*k[5mC]*kA*d[5mC]*dT*dT*dT*dT*dA*d[5mC]*dA*dT*kT*eA*kG*eG; antisense) [Compound 1198312]” the “YAP1 (% UT)” value [7] was 7 % UT.

With “1197263 (kG*kA*k[5mC]*dA*mA*d[5mC]*dT*d[5mC]*dT*dT*dA*dT*dA*kT*kG*kG) [Compound 1197263]” the “YAP1 (% UT)” value [1] was 91 % UT.

With “1200814 (kA*k[5mC]*kT*dT*dT*mU*dA*d[5mC]*dA*dT*dT*dA*dG*kG*kA*kA; antisense) [Compound 1200814]” the “YAP1 (% UT)” value [10] was 73 % UT.

For “1198958 (kT*kG*dT*dA*dT*dG*dT*d[5mC]*dA*dG*dA*kA*dG*kA*dG*kT; antisense) [Compound 1198958]”, the “YAP1 (% UTC)” value [2] was 12 % UTC.

With “1198892 (kA*kA*dT*dT*dG*dT*d[5mC]*dT*d[5mC]*dA*dT*kG*d[5mC]*k[5mC]*dT*kT) [Compound 1198892]” the “YAP1 (% UTC)” value [11] was 24 % UTC.

In the case of “1198863 (kA*kT*dT*dG*d[5mC]*dA*dA*dT*d[5mC]*dT*dG*kT*e[5mC]*kT*eG*kA; antisense) [Compound 1198863]”, the “YAP1 (% UT)” value [12] is reported as 65 % UT.

“1198788 (antisense kA*eA*kG*dT*dG*dT*dA*dT*dG*dT*d[5mC]*dA*eG*eA*kA*kG) [Compound 1198788]” was tested, and the “YAP1 (% UTC)” value [3] was 17 % UTC.

In the case of “1198608 (antisense kT*kA*kT*dG*dT*dA*dA*dT*dA*dT*dT*dG*k[5mC]*kA*kA*eT) [Compound 1198608]”, the “YAP1 (% UT)” value [4] is reported as 83 % UT.

With “1009396 (k[5mC]*kA*k[5mC]*dT*dG*dA*dG*dG*dT*dA*dT*dA*dA*k[5mC]*kT*kG; antisense) [Compound 1009396]” the “YAP1 (% UT)” value [7] was 41 % UT.

In the case of “1197193 (antisense AGGATGCATGGTTTTT; chemistry not fully specified) [Compound 1197193]”, the “YAP1 (% UT)” value (Yap1 mRNA, percent of untreated control, modified oligonucleotides targeting SEQ ID NO: 1 and 2, Table 47) is reported as 15 % UT.

For “1198658 (kA*kA*dG*d[5mC]*dA*d[5mC]*dT*dT*dT*dT*dA*d[5mC]*kA*eT*kT*eA; antisense) [Compound 1198658]”, the “YAP1 (% UTC)” value [3] was 62 % UTC.

With “1198562 (antisense kA*kG*kG*dT*dA*dT*dA*dA*d[5mC]*dT*dG*dG*kG*k[5mC]*kA*eA) [Compound 1198562]” the “YAP1 (% UT)” value [4] was 30 % UT.

In the case of “1198946 (kA*kA*d[5mC]*dT*d[5mC]*dT*dT*dA*dT*dA*dT*kG*dG*kT*dT*kT; antisense) [Compound 1198946]”, the “YAP1 (% UTC)” value [2] is reported as 72 % UTC.

“1198843 (kA*kG*dT*dG*d[5mC]*dT*dT*dT*dG*dG*dA*kA*eG*kA*eT*k[5mC]; antisense) [Compound 1198843]” was tested, and the “YAP1 (% UT)” value [12] was 45 % UT.

For “1198745 (k[5mC]*eA*k[5mC]*dT*dT*dT*dT*dA*d[5mC]*dA*dT*dT*eA*eG*kG*kA; antisense) [Compound 1198745]”, the “YAP1 (% UTC)” value [6] was 57 % UTC.

With “1198760 (kT*eT*kA*dG*dG*dA*dT*dG*d[5mC]*dA*dT*dG*eG*eT*kT*kT; antisense) [Compound 1198760]” the “YAP1 (% UTC)” value [6] was 91 % UTC.

“1198590 (antisense kT*k[5mC]*kA*dG*dA*dT*dT*dT*dA*dG*dG*dA*kT*kG*k[5mC]*eA) [Compound 1198590]” was tested, and the “YAP1 (% UT)” value [4] was 46 % UT.

For “1198706 (kA*kG*dT*dA*dA*dG*dG*dT*dT*dT*d[5mC]*d[5mC]*k[5mC]*eA*kG*eA; antisense) [Compound 1198706]”, the “YAP1 (% UTC)” value [9] was 39 % UTC.

With “1198222 (kT*kT*dT*dT*dA*d[5mC]*dA*dT*dT*dA*dG*eG*eA*eA*k[5mC]*kA) [Compound 1198222]” the “YAP1 (% UTC)” value [9] was 87 % UTC.

“1095566 (antisense CTGAGGTATAACTGGG; chemistry not fully specified) [Compound 1095566]” was tested, and the “YAP1 (% UT)” value [5] was 47 % UT.

With “1095575 (antisense kA*k[5mC]*dT*dG*dA*dG*dG*dT*dA*dT*dA*eA*e[5mC]*eT*kG*kG) [Compound 1095575]” the “YAP1 (% UTC)” value [8] was 55 % UTC.

“1198397 (k[5mC]*dA*d[5mC]*dT*dT*dT*dT*dA*d[5mC]*dA*dT*kT*eA*kG*eG*kA; antisense) [Compound 1198397]” was tested, and the “YAP1 (% UTC)” value (Table 39, SNU-449 cells, 10,000 cells per well, free uptake, 2,000 nM oligonucleotide, approx. 48 hours, RTS36584, normalized to RIBOGREEN, Yap1 mRNA relative to untreated control) was 17 % UTC.

In the case of “1198487 (antisense kT*kT*dA*dA*dG*d[5mC]*dA*d[5mC]*dT*dT*dT*eT*kA*e[5mC]*kA*eT) [Compound 1198487]”, the “YAP1 (% UTC)” value [11] is reported as 62 % UTC.

With “1198659 (antisense kT*kT*dA*dA*dG*d[5mC]*dA*d[5mC]*dT*dT*dT*dT*kA*e[5mC]*kA*eT) [Compound 1198659]” the “YAP1 (% UTC)” value [3] was 58 % UTC.

With “1198350 (kT*kA*kT*dG*dT*dA*dA*dT*dA*dT*dT*dG*k[5mC]*eA*kA*eT; antisense) [Compound 1198350]” the “YAP1 (% UT)” value [5] was 83 % UT.

For “1198974 (kA*kG*dA*d[5mC]*dT*dA*dA*dG*dT*dA*dA*kG*dG*kT*dT*kT; antisense) [Compound 1198974]”, the “YAP1 (% UTC)” value [2] was 73 % UTC.

With “1198499 (kT*kT*dT*dA*dG*dG*dA*dT*dG*d[5mC]*dA*eT*kG*eG*kT*eT; antisense) [Compound 1198499]” the “YAP1 (% UTC)” value [11] was 13 % UTC.

For “1198765 (k[5mC]*eA*kG*dA*dT*dT*dT*dA*dG*dG*dA*dT*eG*e[5mC]*kA*kT) [Compound 1198765]”, the “YAP1 (% UTC)” value [6] was 23 % UTC.

In the case of “1197281 (kA*kT*kT*dG*mU*d[5mC]*dT*dC*dA*dT*dG*d[5mC]*d[5mC]*kT*kT*kA; antisense) [Compound 1197281]”, the “YAP1 (% UT)” value [4] is reported as 42 % UT.

In the case of “1198311 (k[5mC]*kA*k[5mC]*dT*dT*dT*dT*dA*d[5mC]*dA*dT*dT*kA*eG*kG*eA; antisense) [Compound 1198311]”, the “YAP1 (% UT)” value [7] is reported as 39 % UT.
